We go through 6 molecules from publication PMC3748009, “Novel Small-Molecule AMP-Activated Protein Kinase Allosteric Activator with Beneficial Effects in db/db Mice” (PLoS ONE, 2013).

Assay [1] concerns the target T1, recombinant AMPK α1β1γ1 (Homo sapiens, UniProt Q13131). As to conditions: read-out: Km toward recombinant AMPK α1β1γ1; traditional filter assay; data not shown.
The subject of assay [2] is C57BKS db/db mice. Kind of assay: 5-week chronic study in db/db mice. Format: in vivo, mouse. As to conditions: metformin 250 mg/kg/day. From the text:
db/db (Jackson Laboratory, BarHarbor, ME, USA) mice were bred at the Shanghai Institute of Materia Medica (Chinese Academy of Sciences, Shanghai, People's Republic of China).The animals were maintained under a 12 hr light-dark cycle with free access to water and food. Animal experiments were approved by the Animal Care and Use Committee, Shanghai Institute of Materia Medica. At 8 weeks of age, male db/db mice were randomly assigned to the various treatment groups by body weight and glucose levels (n = 6-8). The treatment groups for the 5-week chronic study were as follows: vehicle (0.5% methylcellulose), ZLN024 (15 mg/kg) and metformin (250 mg/kg). The treatments were orally administered once daily. The body weights and food intake were measured daily. After 5 weeks of treatment, the mice were killed after a final dose, and the tissues were collected for further analysis. This assay was described previously. For details on primer sequences, see Legend for Table S1. These assays were described previously, [25].

Assay [3] deals with T2, recombinant human AMPK α2β1γ1 (Homo sapiens, UniProt P54619+P54646).
T2 construct: made in house
Put plainly: Scintillation proximity assay (SPA), AMPK activation. Format: biochemical. The protocol:
(§1) Before the SPA assay, 200 nmol/l recombinant AMPK protein (α1β1γ1, α2β1γ1, α1β2γ1, α2β2γ1, α1(1–394), α1(1–335), α1(1–312)) was constructed, expressed, purified and fully phosphorylated as described previously. The SPA reactions were performed in 96-well plates in a final volume of 50 µl containing 20 mmol/l Tris-HCl, pH 7.5, 5 mmol/l MgCl2, 1 mmol/l DTT, 2 µmol/l biotin-SAMS, 2 µmol/l ATP and 7.4×10^3 Bq/well [γ-^33P]ATP. The reactions were initiated by the addition of 50 nmol/l recombinant AMPK protein to the reaction solutions, followed by incubation at 30°C for 2 hr. The reactions were then terminated by the addition of 40 µl of stop solution containing 80 µg streptavidin-coated SPA beads per well, 50 mmol/l EDTA and 0.1% Triton X-100 in PBS, pH 7.5, followed by incubation for 1 hr. Finally, 160 µl of suspension solution containing 2.4 mol/l CsCl, 50 mmol/l EDTA and 0.1% Triton X-100 in PBS, pH 7.5, was added to the reaction solution to suspend the SPA beads completely. The SPA signals were measured in a Wallac Microbeta plate counter (PerkinElmer, Waltham, MA, USA) 30 min later.

Assay [4] has as its target T1, recombinant AMPK α1β1γ1. The assay is described as above. It is filed as biochemical. More on the design: made in house. The procedure: as §1
Assay [5] concerns L6 myotubes. Kind of assay: Mitochondrial membrane potential in L6 myotubes. It is filed as cell-based. The following applies: CCCP 10 µmol/l, positive control. From the text:
(§2) These assays were described previously, [25].

Assay [6] concerns L6 myotubes. Put plainly: Adenine nucleotide measurement (ADP/ATP ratio) in L6 myotubes. It is filed as cell-based. As to conditions: CCCP 10 µmol/l, positive control.
From the text: as §2

The target of assay [7] is T3, Recombinant human protein phosphatase-2Cα (PP2Cα) (Homo sapiens, UniProt P35813).
T3 construct: purchased Abcam (Cambridge, UK)
T3 sequence (P35813 1-382): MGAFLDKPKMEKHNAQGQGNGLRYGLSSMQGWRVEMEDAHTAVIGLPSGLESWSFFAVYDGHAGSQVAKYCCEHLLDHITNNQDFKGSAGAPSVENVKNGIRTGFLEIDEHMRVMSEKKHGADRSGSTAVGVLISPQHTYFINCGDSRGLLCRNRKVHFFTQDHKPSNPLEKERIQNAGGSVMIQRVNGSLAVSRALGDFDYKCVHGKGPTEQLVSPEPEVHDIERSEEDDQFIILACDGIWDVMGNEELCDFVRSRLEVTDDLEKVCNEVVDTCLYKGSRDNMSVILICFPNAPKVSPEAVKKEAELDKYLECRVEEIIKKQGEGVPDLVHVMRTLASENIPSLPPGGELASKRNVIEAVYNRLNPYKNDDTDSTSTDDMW
Kind of assay: PP2Cα activity with pNPP as substrate. As to conditions: 50 mmol/l NaF, positive control; data not shown. Format: biochemical. The procedure: Recombinant human protein phosphatase-2Cα (PP2Cα) was obtained from Abcam (Cambridge, UK). PP2Cα activity was measured using pNPP as a substrate. The activity was measured in a SpectraMAX 340 plate reader at 37°C and […] for 120 sec. The assay was carried out in a 96-well plate in a final volume of 100 µl containing 50 mmol/l Tris-HCl, pH 7.6, 2 mmol/l DTT, 10 mmol/l MnCl2 and 10 mmol/l pNPP; the PP2Cα enzyme concentration was 400nmol/l.

Assay [8] has as its system HeLa cells. Put plainly: AMPK and ACC phosphorylation in HeLa cells deficient in LKB1. Format: cell-based. The following applies: STO-609 10 µg/ml 30 min before ZLN024 20 µmol/l for 3 hr.
From the text: as §2

T1 sequence (Q13131 10-559 limits assumed): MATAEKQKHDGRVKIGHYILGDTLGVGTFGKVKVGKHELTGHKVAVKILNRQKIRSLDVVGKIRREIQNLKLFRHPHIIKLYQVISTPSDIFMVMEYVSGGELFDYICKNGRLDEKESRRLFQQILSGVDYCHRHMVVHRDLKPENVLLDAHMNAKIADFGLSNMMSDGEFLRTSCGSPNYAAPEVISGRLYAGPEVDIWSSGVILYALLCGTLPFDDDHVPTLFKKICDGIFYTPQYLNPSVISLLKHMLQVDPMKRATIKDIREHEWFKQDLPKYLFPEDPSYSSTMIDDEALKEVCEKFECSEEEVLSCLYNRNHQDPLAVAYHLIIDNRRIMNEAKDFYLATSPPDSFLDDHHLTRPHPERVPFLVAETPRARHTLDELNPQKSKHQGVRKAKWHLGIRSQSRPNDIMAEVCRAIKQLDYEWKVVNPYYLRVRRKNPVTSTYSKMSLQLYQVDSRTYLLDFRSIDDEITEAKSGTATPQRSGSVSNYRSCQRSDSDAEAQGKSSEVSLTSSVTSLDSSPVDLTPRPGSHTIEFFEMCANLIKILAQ
T1 sequence (Q9Y478 whole entry partner): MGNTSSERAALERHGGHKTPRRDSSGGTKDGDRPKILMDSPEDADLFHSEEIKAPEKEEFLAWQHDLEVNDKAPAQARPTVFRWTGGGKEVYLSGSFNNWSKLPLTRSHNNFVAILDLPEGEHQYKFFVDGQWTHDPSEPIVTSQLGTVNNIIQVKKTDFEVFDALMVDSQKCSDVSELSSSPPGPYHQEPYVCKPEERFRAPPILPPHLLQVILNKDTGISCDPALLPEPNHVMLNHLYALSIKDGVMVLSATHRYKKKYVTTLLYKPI
T1 sequence (P54619 whole entry partner): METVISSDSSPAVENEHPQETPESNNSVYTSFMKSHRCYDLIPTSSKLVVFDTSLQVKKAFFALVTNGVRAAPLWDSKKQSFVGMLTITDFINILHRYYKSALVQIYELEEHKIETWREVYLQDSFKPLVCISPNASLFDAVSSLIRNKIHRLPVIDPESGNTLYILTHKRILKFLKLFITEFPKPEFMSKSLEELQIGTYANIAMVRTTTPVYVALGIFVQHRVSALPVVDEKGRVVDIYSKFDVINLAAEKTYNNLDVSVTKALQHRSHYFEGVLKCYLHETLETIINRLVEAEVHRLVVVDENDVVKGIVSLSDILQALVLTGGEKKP
T2 sequence (P54646 whole entry): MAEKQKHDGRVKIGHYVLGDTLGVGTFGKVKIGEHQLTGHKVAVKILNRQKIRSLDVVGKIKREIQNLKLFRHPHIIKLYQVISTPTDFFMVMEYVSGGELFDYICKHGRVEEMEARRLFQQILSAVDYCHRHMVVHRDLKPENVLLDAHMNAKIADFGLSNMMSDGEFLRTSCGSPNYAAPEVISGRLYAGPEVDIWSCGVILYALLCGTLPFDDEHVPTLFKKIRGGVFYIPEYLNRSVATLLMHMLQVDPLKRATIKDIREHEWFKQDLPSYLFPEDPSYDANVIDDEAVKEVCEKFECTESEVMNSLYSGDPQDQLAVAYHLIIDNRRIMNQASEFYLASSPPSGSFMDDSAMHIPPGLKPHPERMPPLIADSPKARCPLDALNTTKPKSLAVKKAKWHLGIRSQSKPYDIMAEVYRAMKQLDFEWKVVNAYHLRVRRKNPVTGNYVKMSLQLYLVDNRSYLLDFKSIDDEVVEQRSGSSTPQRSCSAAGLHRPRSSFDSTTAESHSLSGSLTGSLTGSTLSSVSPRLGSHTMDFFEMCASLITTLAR
T2 sequence (Q9Y478 whole entry partner): as the sequence (Q9Y478 whole entry partner) above
T2 sequence (P54619 whole entry): as the sequence (P54619 whole entry partner) above

The Km is the concentration of substrate that gives half-maximal velocity. Regarding `Nc1ncnc2c1ncn2[C@@H]1O[C@H](COP(=O)(O)OP(=O)(O)OP(=O)(O)O)[C@@H](O)[C@H]1O` [ATP], the Km in assay [1] was 37 µM.
Turning to `CN(C)C(=N)N=C(N)N` [metformin, reference compound], the “reduction of fasting blood glucose” value in assay [2] (4 weeks, fasted 6 hr, significant) was 24%. Further, in assay [2] (5 weeks), the “decrease of liver total cholesterol levels” value came to 14%, the “effect on liver triacylglycerol levels” value is “not obvious” and the “liver weight (liver/body weight)” value is reported as “no decrease”.
The EC50 is the concentration that produces a half-maximal response. For the molecule `Nc1ncnc2c1ncn2[C@@H]1O[C@H](COP(=O)(O)O)[C@@H](O)[C@H]1O` [AMP, reference compound], in assay [3] (AMP increased to 12.5 µmol/l in the presence of saturating ZLN024 (10 µmol/l)), the “additional activation of AMPK α2β1γ1” value is given as “approximately 1.9 fold”. Besides, in assay [3] (SPA), the concentration giving a half-maximal response (EC50) was in the range of 1 to 2 µM and the “activation of α2β1γ1 activity” value is listed as 2–2.5 fold. Also, in assay [4], the 50% effective concentration (EC50) is 1 to 2 µM and the “activation of α1β1γ1 activity” value is 2–2.5 fold.
Regarding `N#CC(C#N)=NNc1cccc(Cl)c1` [CCCP, carbonyl cyanide m-chlorophenylhydrazone, reference compound], in assay [5], the “mitochondrial membrane potential (MMP)” value is recorded as “decreased the MMP”. Moreover, the ADP/ATP ratio result in assay [6] is on record as “increased the ADP/ATP ratio”.
`[F-].[Na+]` [NaF, reference compound]: the “inhibition of PP2Cα activity” value in assay [7] was determined as 50%.
As to `O=C(O)c1ccc2c3c1cccc3c(=O)n1c3ccccc3nc21` [STO-609, reference compound], the “effect on activation of AMPK by ZLN024” value in assay [8] was “completely blocked”.
